Broadly, the IC50 is the concentration that inhibits the measured activity by half. Usually melting point stands for the temperature of the solid-liquid transition.

Where only a bound is given, the exact number is not on record here.

Drawing on patent US8685992B2, “Histone deacetylase inhibitors based simultaneously on trisubstituted 1H-pyrroles and aromatic and heteroaromatic spacers” (Universidad del País Vasco, priority 2009, dated 2014), this text covers IC50 and melting point for 25 compounds.

One data set deals with Human HDAC1 (Homo sapiens (Human), UniProt Q13547). Kind of data set: HDAC1 fluorogenic peptide deacetylation assay. Type of data set: biochemical. The conditions noted are these: human HDAC1, 50 μM substrate, 30° C., 2 h; read-out: IC50 (nM) of enzyme activity HDAC1.
In the next data set the target is Human HDAC2 (Homo sapiens (Human), UniProt Q92769). Kind of data set: HDAC2 fluorogenic peptide deacetylation assay. Type of data set: biochemical. The conditions noted are these: human HDAC2, 50 μM substrate, 30° C., 2 h; read-out: IC50 (nM) of enzyme activity HDAC2.
The next data set addresses Human HDAC3/NcoR2 (Homo sapiens (Human), UniProt O15379). In words: HDAC3 fluorogenic peptide deacetylation assay. The conditions noted are these: human HDAC3/NcoR2, 50 μM substrate, 30° C., 2 h; read-out: IC50 (nM) of enzyme activity HDAC3. It counts as biochemical.
For the next data set, the target named is Human HDAC8 (Homo sapiens (Human), UniProt Q9BY41). Kind of data set: HDAC8 fluorogenic peptide deacetylation assay. As to conditions: human HDAC8, 50 μM substrate, 30° C., 2 h; read-out: IC50 (nM) of enzyme activity HDAC8. It counts as biochemical.
For data set [1], the system named is Nuclear Extract from HeLa Cells. Kind of data set: HeLa Nuclear Extract HDAC assay. Type of data set: biochemical, human. As to conditions: 50 μM substrate, 30° C., 2 h, read-out: IC50 (nM) of enzyme activity HeLa.
The target of data set [2] is histone deacetylase from rat liver. In words: Rat liver HDAC assay. Type of data set: biochemical. As to conditions: Boc-Lys(Ac)-AMC substrate, 30° C., 2 h, read-out: IC50 (nM) of enzyme activity Rat liver.
The target of the next data set is Human HDAC6 (Homo sapiens (Human), UniProt Q9UBN7). In words: HDAC6 fluorogenic peptide deacetylation assay. Type of data set: biochemical. The conditions noted are these: human HDAC6, 50 μM substrate, 30° C., 2 h; read-out: IC50 (nM) of enzyme activity HDAC6.
Sequence of Human HDAC6 (Q9UBN7 whole entry): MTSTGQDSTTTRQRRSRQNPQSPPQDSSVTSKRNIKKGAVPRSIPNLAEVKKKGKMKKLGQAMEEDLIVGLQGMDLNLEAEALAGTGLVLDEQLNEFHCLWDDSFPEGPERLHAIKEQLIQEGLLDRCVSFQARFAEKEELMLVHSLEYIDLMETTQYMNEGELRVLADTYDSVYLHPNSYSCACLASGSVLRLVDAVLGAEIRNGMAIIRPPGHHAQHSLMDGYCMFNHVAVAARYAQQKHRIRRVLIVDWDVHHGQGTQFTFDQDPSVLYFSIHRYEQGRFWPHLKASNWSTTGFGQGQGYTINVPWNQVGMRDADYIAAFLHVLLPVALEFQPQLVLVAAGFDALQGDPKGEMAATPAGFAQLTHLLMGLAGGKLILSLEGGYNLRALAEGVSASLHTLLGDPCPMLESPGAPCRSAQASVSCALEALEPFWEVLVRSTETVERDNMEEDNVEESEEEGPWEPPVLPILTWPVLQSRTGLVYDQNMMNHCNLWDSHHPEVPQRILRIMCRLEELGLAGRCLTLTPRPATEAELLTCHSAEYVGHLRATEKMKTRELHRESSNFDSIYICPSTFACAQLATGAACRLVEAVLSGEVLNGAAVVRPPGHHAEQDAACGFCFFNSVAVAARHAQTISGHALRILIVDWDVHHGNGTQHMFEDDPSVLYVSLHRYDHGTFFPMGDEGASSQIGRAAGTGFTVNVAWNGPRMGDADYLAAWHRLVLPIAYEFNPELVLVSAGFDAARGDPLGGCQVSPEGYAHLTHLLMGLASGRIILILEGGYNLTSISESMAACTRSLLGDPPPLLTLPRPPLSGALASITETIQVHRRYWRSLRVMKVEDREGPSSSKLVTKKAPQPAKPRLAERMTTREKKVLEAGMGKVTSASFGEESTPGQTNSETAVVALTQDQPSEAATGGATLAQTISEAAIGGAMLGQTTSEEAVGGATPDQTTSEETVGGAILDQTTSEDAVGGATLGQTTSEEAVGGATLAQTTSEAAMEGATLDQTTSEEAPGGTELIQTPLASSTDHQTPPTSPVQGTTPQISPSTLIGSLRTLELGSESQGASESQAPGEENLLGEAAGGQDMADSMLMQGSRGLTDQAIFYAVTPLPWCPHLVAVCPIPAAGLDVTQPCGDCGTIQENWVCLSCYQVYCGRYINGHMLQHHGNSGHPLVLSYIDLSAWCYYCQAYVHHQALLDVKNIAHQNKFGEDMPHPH

Sequence of Human HDAC1 (Q13547 whole entry): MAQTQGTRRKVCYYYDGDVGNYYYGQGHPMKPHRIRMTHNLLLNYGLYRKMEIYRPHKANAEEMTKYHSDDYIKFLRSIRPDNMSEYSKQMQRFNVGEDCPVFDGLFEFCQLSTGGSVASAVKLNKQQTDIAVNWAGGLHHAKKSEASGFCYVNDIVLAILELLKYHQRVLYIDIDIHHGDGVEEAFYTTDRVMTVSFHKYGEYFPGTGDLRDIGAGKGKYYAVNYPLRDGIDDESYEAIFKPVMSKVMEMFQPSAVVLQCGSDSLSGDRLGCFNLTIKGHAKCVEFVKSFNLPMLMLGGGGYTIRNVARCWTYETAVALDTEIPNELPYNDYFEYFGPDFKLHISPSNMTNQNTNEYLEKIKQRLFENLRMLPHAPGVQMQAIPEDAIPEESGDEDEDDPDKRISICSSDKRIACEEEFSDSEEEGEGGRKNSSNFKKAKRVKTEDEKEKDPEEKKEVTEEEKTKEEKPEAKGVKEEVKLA
Sequence of Human HDAC2 (Q92769 whole entry): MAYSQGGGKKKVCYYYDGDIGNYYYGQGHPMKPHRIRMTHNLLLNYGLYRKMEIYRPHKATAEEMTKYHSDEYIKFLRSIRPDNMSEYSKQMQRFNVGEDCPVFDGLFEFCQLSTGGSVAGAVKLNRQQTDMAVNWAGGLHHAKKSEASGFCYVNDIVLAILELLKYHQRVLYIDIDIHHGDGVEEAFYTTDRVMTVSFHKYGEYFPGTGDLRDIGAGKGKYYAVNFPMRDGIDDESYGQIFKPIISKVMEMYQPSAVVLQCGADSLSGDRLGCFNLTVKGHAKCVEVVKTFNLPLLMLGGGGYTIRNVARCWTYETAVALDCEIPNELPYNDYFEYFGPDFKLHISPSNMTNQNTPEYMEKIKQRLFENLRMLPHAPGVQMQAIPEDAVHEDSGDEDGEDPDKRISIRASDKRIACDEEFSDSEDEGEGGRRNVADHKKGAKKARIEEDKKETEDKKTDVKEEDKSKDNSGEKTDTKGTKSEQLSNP
Sequence of Human HDAC3/NcoR2 (O15379 whole entry): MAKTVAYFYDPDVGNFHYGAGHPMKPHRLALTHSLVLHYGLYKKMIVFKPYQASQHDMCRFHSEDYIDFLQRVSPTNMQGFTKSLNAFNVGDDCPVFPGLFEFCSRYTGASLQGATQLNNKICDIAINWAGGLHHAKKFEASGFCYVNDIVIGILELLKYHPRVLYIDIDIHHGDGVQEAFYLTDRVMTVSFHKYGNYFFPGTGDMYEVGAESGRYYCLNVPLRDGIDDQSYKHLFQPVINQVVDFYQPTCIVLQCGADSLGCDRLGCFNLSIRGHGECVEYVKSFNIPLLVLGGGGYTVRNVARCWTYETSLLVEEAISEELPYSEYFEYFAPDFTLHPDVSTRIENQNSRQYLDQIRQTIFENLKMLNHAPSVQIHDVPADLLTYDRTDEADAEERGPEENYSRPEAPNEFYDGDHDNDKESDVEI
Sequence of Human HDAC3/NcoR2 (Q9Y618 395-489 partner): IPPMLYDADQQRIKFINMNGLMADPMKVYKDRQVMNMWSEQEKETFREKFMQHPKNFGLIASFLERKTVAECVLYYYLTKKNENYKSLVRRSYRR
Sequence of Human HDAC8 (Q9BY41 whole entry): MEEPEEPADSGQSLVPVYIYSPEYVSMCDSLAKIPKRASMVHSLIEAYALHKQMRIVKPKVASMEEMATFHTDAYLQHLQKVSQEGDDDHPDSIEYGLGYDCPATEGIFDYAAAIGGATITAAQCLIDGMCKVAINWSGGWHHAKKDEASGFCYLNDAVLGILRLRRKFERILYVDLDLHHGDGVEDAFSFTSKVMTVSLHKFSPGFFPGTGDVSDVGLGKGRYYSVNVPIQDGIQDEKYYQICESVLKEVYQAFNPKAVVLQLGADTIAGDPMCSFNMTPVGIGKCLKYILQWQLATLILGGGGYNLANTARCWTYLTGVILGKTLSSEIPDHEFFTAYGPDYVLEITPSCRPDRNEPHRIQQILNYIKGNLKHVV

For `O=C(NO)c1ccc(CNC(=O)c2[nH]c(-c3cccs3)cc2-c2ccc(F)cc2)nc1` [Example 11, 6-[({[3-(4-fluorophenyl)-5-(2-thienyl)-1H-pyrrol-2-yl]carbonyl}amino)methyl]-N-hydroxynicotinamide], the melting point lay in the range of 151 to 152 °C. The IC50 at Human HDAC1 amounted to 744 nM. For the same compound, the IC50 on Human HDAC2 came to 2530 nM. The IC50 at Human HDAC3/NcoR2 worked out at 754 nM. Further, the IC50 at Human HDAC8 amounted to 181 nM. Moreover, the IC50 in data set [1] is 68.3 nM.

Consider `COc1ccc(-c2cc(-c3ccccc3)[nH]c2C(=O)Nc2ccc(C(=O)NO)o2)cc1` [Example 16, N-{5-[(hydroxyamino)carbonyl]-2-furyl}-3-(4-methoxyphenyl)-5-phenyl-1H-pyrrole-2-carboxamide], for which the melting point was in the range of 160 to 162 °C. The IC50 in data set [2] is over 10000 nM.

Compound `O=C(NO)c1ccc(CNC(=O)c2[nH]c(-c3ccccc3)cc2-c2ccc(F)cc2)o1` [Example 17, 3-(4-fluorophenyl)-N-({5-[(hydroxyamino)carbonyl]-2-furyl}methyl)-5-phenyl-1H-pyrrole-2-carboxamide] showed a melting point of 152 to 153 °C. The IC50 in data set [2] amounted to 9790 nM.

`COc1ccc(-c2cc(-c3ccccc3)[nH]c2C(=O)Nc2cccc(CC(=O)NO)c2)cc1` [Example 18, N-{3-[2-(hydroxyamino)-2-oxoethyl]phenyl}-3-(4-methoxyphenyl)-5-phenyl-1H-pyrrole-2-carboxamide] yielded a melting point of 205 to 206 °C. For the same compound, the IC50 in data set [2] is over 10000 nM.

`COc1ccc(-c2cc(-c3ccccc3)[nH]c2C(=O)Nc2ccc(C(=O)NO)cc2)cc1` [Example 19, N-{4-[(hydroxyamino)carbonyl]phenyl}-3-(4-methoxyphenyl)-5-phenyl-1H-pyrrole-2-carboxamide] yielded a melting point of 234 to 235 °C. For the same compound, the IC50 in data set [2] amounted to 101 nM.

Consider `COc1ccc(-c2cc(-c3ccccc3)[nH]c2C(=O)NCc2ccc(C(=O)NCCS)cc2)cc1` [Example 23, 3-(4-methoxyphenyl)-5-phenyl-N-(4-{[(2-sulfanylethyl)amino]carbonyl}benzyl)-1H-pyrrole-2-carboxamide], for which, in data set [2], the IC50 was over 10000 nM.

As to `O=C(NO)c1ccc(CNC(=O)c2[nH]c(-c3ccccc3)cc2-c2ccc(F)cc2)cc1` [Example 29, 3-(4-fluorophenyl)-N-{4-[(hydroxyamino)carbonyl]benzyl}-5-phenyl-1H-pyrrole-2-carboxamide], the IC50 is 73 nM in data set [1] and 71 nM in data set [2].

Regarding `O=C(NO)c1ccc(CNC(=O)c2[nH]c(-c3ccc(F)cc3)cc2-c2ccc(F)cc2)cc1` [Example 30, 3,5-bis-(4-fluorophenyl)-N-{4-[(hydroxyamino)carbonyl]benzyl}-1H-pyrrole-2-carboxamide], the IC50 in data set [1] came out at 90 nM; in data set [2], 82 nM.

Take `O=C(NO)c1ccc(CNC(=O)c2[nH]c(-c3cccs3)cc2-c2ccc(F)cc2)cc1` [Example 31, 3-(4-fluorophenyl)-N-{4-[(hydroxyamino)carbonyl]benzyl}-5-(2-thienyl)-1H-pyrrole-2-carboxamide]: the IC50 in data set [1] is 58 nM; in data set [2], 49 nM.

Regarding `O=C(NO)c1ccc(CNC(=O)c2[nH]c(-c3cccs3)cc2-c2ccc(F)cc2)cn1` [Example 32, 3-(4-fluorophenyl)-N-{2-[(hydroxyamino)carbonyl]-5-pyridyl-methyl}-5-(2-thienyl)-1H-pyrrole-2-carboxamide], the IC50 in data set [1] was 390 nM.

Regarding `Nc1ccccc1NC(=O)c1ccc(CNC(=O)c2[nH]c(-c3ccc(O)cc3)cc2-c2ccsc2)cc1` [Example 33, N-(4-{[(2-aminophenyl)amino)carbonyl]benzyl}-5-(4-hydroxyphenyl)-3-(3-thienyl)-1H-pyrrole-2-carboxamide], the IC50 is 103 nM at Human HDAC1; 364 nM at Human HDAC2; 732 nM at Human HDAC3/NcoR2; over 5000 nM at Human HDAC6; over 5000 nM at Human HDAC8; 3270 nM in data set [1].

Take `Nc1ccccc1NC(=O)c1ccc(CNC(=O)c2[nH]c(-c3ccoc3)cc2-c2ccc(O)cc2)cc1` [Example 34, N-(4-{[(2-aminophenyl)amino)carbonyl]benzyl}-5-(3-furyl)-3-(4-hydroxyphenyl)-1H-pyrrole-2-carboxamide]: the IC50 at Human HDAC1 was 86 nM; at Human HDAC2 it was 349 nM; at Human HDAC3/NcoR2, 770 nM; at Human HDAC6, 1260 nM; on Human HDAC8, over 5000 nM; in data set [1] it was 1540 nM.

On to `Nc1ccccc1NC(=O)c1ccc(CNC(=O)c2[nH]c(-c3ccc(O)cc3)cc2-c2ccccc2)cc1` [Example 35, N-(4-{[(2-Aminophenyl)amino)carbonyl]benzyl}-5-(4-hydroxyphenyl)-3-phenyl-1H-pyrrole-2-carboxamide], for which the IC50 is 108 nM at Human HDAC1; 433 nM at Human HDAC2; 806 nM at Human HDAC3/NcoR2; over 5000 nM on Human HDAC6; over 5000 nM on Human HDAC8; 4280 nM in data set [1].

Regarding `Nc1ccccc1NC(=O)c1ccc(CNC(=O)c2[nH]c(-c3ccsc3)cc2-c2ccc(O)cc2)cc1` [Example 36, N-(4-{[(2-aminophenyl)amino)carbonyl]benzyl}-3-(4-hydroxyphenyl)-5-(3-thienyl)-1H-pyrrole-2-carboxamide], the IC50 on Human HDAC1 was 222 nM; at Human HDAC2 it was 752 nM; on Human HDAC3/NcoR2 it was 2070 nM; at Human HDAC6, over 5000 nM; on Human HDAC8 it was over 5000 nM; in data set [1] it was 4080 nM.

For `COc1ccc(-c2cc(-c3ccccc3)[nH]c2C(=O)NCc2ccc(C(=O)NO)cc2)cc1` [Example 38, N-{4-[(hydroxyamino)carbonyl]benzyl}-3-(4-methoxyphenyl)-5-phenyl-1H-pyrrole-2-carboxamide], the IC50 in data set [2] amounted to 70 nM.

As for `O=C(NO)c1ccc(CNC(=O)c2[nH]c(-c3ccccc3)cc2-c2ccc(C(F)(F)F)cc2)cc1` [Example 39, N-{4-[(hydroxyamino)carbonyl]benzyl}-5-phenyl-3-(4-trifluoromethylphenyl)-1H-pyrrole-2-carboxamide], the IC50 in data set [2] was 170 nM.

Take `O=C(NO)c1ccc(CNC(=O)c2[nH]c(-c3ccccc3)cc2-c2ccc(Br)cc2)cc1` [Example 40, 3-(4-bromophenyl)-N-{4-[(hydroxyamino)carbonyl]benzyl}-5-phenyl-1H-pyrrole-2-carboxamide]: in data set [2], the IC50 was 99 nM.

For the compound `COc1ccc(-c2cc(-c3ccccc3)[nH]c2C(=O)NCc2ccc(C(=O)NO)cc2)cc1OC` [Example 41, N-{4-[(hydroxyamino)carbonyl]benzyl}-3-(3,4-dimethoxyphenyl)-5-phenyl-1H-pyrrole-2-carboxamide], the IC50 in data set [2] was found to be 119 nM.

With `O=C(NO)c1ccc(CNC(=O)c2[nH]c(-c3ccccc3)cc2-c2ccc(F)c(F)c2)cc1` [Example 42, 3-(3,4-difluorophenyl)-N-{4-[(hydroxyamino)carbonyl]benzyl}-5-phenyl-1H-pyrrole-2-carboxamide], the IC50 in data set [2] worked out at 129 nM.

On to `O=C(NO)c1ccc(CNC(=O)c2[nH]c(-c3ccccc3)cc2-c2ccc([N+](=O)[O-])cc2)cc1` [Example 43, N-{4-[(hydroxyamino)carbonyl]benzyl}-3-(4-nitrophenyl)-5-phenyl-1H-pyrrole-2-carboxamide], for which the IC50 in data set [2] stood at 62 nM.

In the case of `O=C(NO)c1ccc(CNC(=O)c2[nH]c(-c3ccccc3)cc2-c2ccc(Cl)c(Cl)c2)cc1` [Example 44, 3-(3,4-dichlorophenyl)-N-{4-[(hydroxyamino)carbonyl]benzyl}-5-phenyl-1H-pyrrole-2-carboxamide], the IC50 in data set [2] is 153 nM.

`O=C(NO)c1ccc(CNC(=O)c2[nH]c(-c3ccccc3)cc2-c2cccc(Br)c2)cc1` [Example 45, 3-(3-bromophenyl)-N-{4-[(hydroxyamino)carbonyl]benzyl}-5-phenyl-1H-pyrrole-2-carboxamide]: the IC50 in data set [2] turned out to be 115 nM.

On to `O=C(NO)c1ccc(CNC(=O)c2[nH]c(-c3cccnc3)cc2-c2ccc(F)cc2)cc1` [Example 46, 3-(4-fluorophenyl)-N-{4-[(hydroxyamino)carbonyl]benzyl}-5-(3-pyridinyl)-1H-pyrrole-2-carboxamide], for which the IC50 in data set [2] worked out at 70 nM.

Take `Cc1ccc(-c2cc(-c3ccc(F)cc3)c(C(=O)NCc3ccc(C(=O)NO)cc3)[nH]2)cc1` [Example 47, 3-(4-fluorophenyl)-N-{4-[(hydroxyamino)carbonyl]benzyl}-5-(4-methylphenyl)-1H-pyrrole-2-carboxamide]: the IC50 in data set [2] came to 108 nM.

In the case of `COc1ccc(-c2cc(-c3ccccc3)[nH]c2C(=O)NCCCCCC(=O)NO)cc1` [Kendine 91, N-[6-(hydroxyamino)-6-oxohexyl]-3-(4-methoxyphenyl)-5-phenyl-1H-pyrrole-2-carboxamide, reference compound], the IC50 at Human HDAC1 came to 508 nM; at Human HDAC2, 1690 nM; at Human HDAC3/NcoR2, 613 nM; at Human HDAC6, 34.9 nM; on Human HDAC8 it was 146 nM; in data set [1], 43 nM.
